Laboratory results from patent EP3478687B1 (Daewoong Pharmaceutical Co., Ltd., priority 2016, dated 2018).

Experiments:
[1] = target: T1, Recombinant purified human BTK (Homo sapiens, UniProt Q06187); test: BTK kinase inhibitory activity, ADP-Glo kinase assay (Promega V9071); assay type: biochemical; conditions: for IC50: ATP 10 uM, 8 ng BTK per reaction, 1 hour 30 °C, chemiluminescence; for inhibition at 1 µM: @1uM compound
T1 construct: purchased Promega V9071
Summary of the method: (§1)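 Recombinant human kinases in Tris pH 7.5 buffer with MgCl2, BSA and DTT (MnCl2 added for BTK), 4 ng JAK3 or 8 ng BTK per reaction. Poly(Glu4,Tyr1) 0.2 µg/µL with 5 µM (JAK3) or 10 µM (BTK) ATP, 1% DMSO, 1 h at 30 °C. ADP-Glo luminescence used to derive IC50.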

[2] = target: T2, Recombinant purified human JAK3 (Homo sapiens, UniProt P52333); test: JAK3 kinase inhibitory activity, ADP-Glo kinase assay (Promega V9441); assay type: biochemical; conditions: for IC50: ATP 5 uM, 4 ng JAK3 per reaction, 1 hour 30 °C, chemiluminescence
T2 construct: purchased Promega V9441
T2 sequence (P52333 1-1124): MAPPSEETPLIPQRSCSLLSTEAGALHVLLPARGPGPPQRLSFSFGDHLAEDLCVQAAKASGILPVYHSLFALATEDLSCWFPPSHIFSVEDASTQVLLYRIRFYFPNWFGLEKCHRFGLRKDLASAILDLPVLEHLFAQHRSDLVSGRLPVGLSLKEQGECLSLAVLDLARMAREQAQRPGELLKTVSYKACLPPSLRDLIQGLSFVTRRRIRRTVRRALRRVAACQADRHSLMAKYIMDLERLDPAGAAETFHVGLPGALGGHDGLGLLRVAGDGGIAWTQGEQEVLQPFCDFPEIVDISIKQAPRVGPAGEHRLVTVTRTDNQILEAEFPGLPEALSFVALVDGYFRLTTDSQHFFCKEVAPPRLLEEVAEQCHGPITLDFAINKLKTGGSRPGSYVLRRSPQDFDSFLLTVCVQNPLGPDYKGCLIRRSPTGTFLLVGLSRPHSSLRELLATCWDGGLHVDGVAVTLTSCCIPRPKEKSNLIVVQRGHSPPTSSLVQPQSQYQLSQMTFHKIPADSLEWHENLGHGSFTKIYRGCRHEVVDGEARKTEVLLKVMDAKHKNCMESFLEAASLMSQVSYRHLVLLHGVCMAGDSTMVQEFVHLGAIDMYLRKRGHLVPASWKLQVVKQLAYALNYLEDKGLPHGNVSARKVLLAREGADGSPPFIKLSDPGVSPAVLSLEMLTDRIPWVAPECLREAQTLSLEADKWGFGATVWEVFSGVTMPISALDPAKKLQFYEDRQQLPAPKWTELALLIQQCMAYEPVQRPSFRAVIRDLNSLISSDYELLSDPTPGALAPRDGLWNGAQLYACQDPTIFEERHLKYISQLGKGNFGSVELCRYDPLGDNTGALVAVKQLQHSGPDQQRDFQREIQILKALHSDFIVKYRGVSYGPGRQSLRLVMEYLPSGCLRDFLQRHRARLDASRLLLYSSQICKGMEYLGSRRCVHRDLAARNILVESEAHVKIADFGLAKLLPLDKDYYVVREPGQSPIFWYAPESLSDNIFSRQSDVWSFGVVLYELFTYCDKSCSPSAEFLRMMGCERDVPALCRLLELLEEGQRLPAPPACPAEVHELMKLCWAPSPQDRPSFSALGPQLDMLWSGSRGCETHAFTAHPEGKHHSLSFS
Summary of the method: as §1

T1 sequence (Q06187 whole entry): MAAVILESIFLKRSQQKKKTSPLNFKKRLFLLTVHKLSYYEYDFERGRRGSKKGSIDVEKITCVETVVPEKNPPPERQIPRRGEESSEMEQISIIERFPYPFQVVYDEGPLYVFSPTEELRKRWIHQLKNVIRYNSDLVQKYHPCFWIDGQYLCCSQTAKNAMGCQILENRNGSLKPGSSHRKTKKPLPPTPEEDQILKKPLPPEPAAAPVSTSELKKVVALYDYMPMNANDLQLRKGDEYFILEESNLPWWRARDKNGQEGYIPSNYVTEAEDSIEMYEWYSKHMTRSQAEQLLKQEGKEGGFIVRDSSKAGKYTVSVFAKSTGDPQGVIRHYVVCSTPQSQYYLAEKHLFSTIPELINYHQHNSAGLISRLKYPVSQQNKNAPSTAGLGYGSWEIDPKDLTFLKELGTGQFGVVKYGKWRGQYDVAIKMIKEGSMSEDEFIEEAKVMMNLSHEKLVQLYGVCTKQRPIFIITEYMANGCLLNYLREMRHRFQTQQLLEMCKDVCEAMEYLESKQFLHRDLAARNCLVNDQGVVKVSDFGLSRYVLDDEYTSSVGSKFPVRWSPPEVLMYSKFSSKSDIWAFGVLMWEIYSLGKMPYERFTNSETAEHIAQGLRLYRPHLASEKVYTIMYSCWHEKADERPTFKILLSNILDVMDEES

SMILES: CCn1cc(Nc2nc(N[C@H]3CN(C(=O)CC#N)CC[C@H]3F)c3c(Cl)n[nH]c3n2)cn1 [Example 138]
- IC50 [1]: 92.7 nM
- IC50 [2]: > 80 nM

SMILES: C=CC(=O)N1CCC[C@@H](N(C)c2nc(Nc3cnn(CC)c3)nc3[nH]cc(F)c23)C1 [Example 87, (R)-1-(3-((2-((1-ethyl-1H-pyrazol-4-yl)amino)-5-fluoro-7H-pyrrolo[2,3-d]pyrimidin-4-yl)(methyl)amino)piperidin-1-yl)prop-2-en-1-one]
- IC50 [1]: 42.2 nM
- IC50 [2]: 16.4 nM

SMILES: C=CC(=O)N1CCC[C@@H](Nc2nc(Nc3cnn(C(C)(C)C)c3)nc3[nH]nc(Cl)c23)C1 [Example 53, (R)-1-(3-(6-(1-tert-butyl-1H-pyrazol-4-ylamino)-3-chloro-1H-pyrazolo[3,4-d]pyrimidin-4-ylamino)piperidin-1-yl)prop-2-en-1-one]
- IC50 [1]: 0.9 nM
- IC50 [2]: 1 nM

SMILES: C=CC(=O)N1CCC[C@@H](Nc2nc(Nc3cnoc3)nc3[nH]cc(Cl)c23)C1 [Example 96, (R)-1-(3-((5-chloro-2-(isoxazol-4-ylamino)-7H-pyrrolo[2,3-d]pyrimidin-4-yl)amino)piperidin-1-yl)prop-2-en-1-one]
- IC50 [1]: 24 nM
- IC50 [2]: 0.7 nM

SMILES: C=CC(=O)N1CCC[C@@H](Nc2nc(Nc3cnn(C(C)(C)C)c3)nc3[nH]nc(SC)c23)C1 [Example 192, (R)-1-(3-((6-((1-(tert-butyl)-1H-pyrazol-4-yl)amino)-3-(methylthio)-1H-pyrazolo [3,4-d]pyrimidin-4-yl)amino)piperidin-1-yl)prop-2-en-1-one]
- IC50 [1]: 0.726 nM
- IC50 [2]: 3 nM

SMILES: C=CC(=O)N1CCC[C@@H](Nc2nc(Nc3cnn(C(F)F)c3)nc3[nH]nc(Cl)c23)C1 [Example 64, (R)-1-(3-((3-chloro-6-((1-(difluoromethyl)-1H-pyrazol-4-yl)amino)-1H-pyrazolo[3,4-d]pyrimidin-4-yl)amino)piperidin-1-yl)prop-2-en-1-one]
- IC50 [1]: 1.7 nM
- IC50 [2]: 0.7 nM

SMILES: C=CC(=O)N1CCC[C@@H](Nc2nc(Nc3cnn(C4CCOCC4)c3)nc3[nH]ncc23)C1 [Example 71, (R)-1-(3-((6-((1-(tetrahydro-2H-pyran-4-yl)-1H-pyrazol-4-yl)amino)-1H-pyrazolo[3,4-d]pyrimidin-4-yl)amino)piperidin-1-yl)prop-2-en-1-one]
- IC50 [1]: 1.3 nM
- IC50 [2]: 2.8 nM

SMILES: C=CC(=O)N1CCC[C@@H](Nc2nc(Nc3cnn(CC)c3)nc3[nH]cc(C#N)c23)C1 [Example 88, (R)-4-((1-acryloylpiperidin-3-yl)amino)-2-((1-ethyl-1H-pyrazol-4-yl)amino)-7H-pyrrolo [2,3-d] pyrim idine-5-carbonitrile]
- IC50 [1]: 1.1 nM
- IC50 [2]: 0.2 nM

SMILES: C=CC(=O)N1CCC[C@@H](Nc2nc(Nc3cnn(CC(F)F)c3)nc3[nH]ncc23)C1 [Example 31, (R)-1-(3-(6-(1-(2,2-difluoroethyl)-1H-pyrazol-4-ylamino)-1H-pyrazolo [3,4-d]pyrimidin-4-ylamino)piperidin-1-yl)prop-2-en-1-one]
- IC50 [1]: 2.2 nM
- IC50 [2]: 3.4 nM

SMILES: C=CC(=O)N1CCC[C@@H](Nc2nc(Nc3cnn(CCN(CC)CC)c3)nc3[nH]ccc23)C1 [Example 19, (R)-1-(3-(2-(1-(2-(diethylamino)ethyl)-1H-pyrazol-4-ylamino)-7H-pyrrolo[2,3-d]pyrimidin-4-ylamino)piperidin-1-yl)prop-2-en-1-one]
- IC50 [1]: 8.7 nM
- IC50 [2]: 0.5 nM

SMILES: CCC#CC(=O)N1CCC[C@@H](Nc2nc(Nc3ccc(N4CCN(C)CC4)cc3)nc3[nH]cc(Cl)c23)C1 [Example 142, (R)-1-(3-((5-chloro-2-((4-(4-methylpiperazin-1-yl)phenyl)amino)-7H-pyrrolo[2,3-d]pyrimidin-4-yl)amino)piperidin-1-yl)pent-2-yn-1-one]
- IC50 [1]: 210 nM
- IC50 [2]: 22.4 nM

SMILES: C=CC(=O)N1CCC[C@@H](Sc2nc(Nc3cnn(C4CC4)c3)nc3[nH]nc(Cl)c23)C1 [Example 110]
- IC50 [1]: 1.4 nM
- IC50 [2]: 1.7 nM

SMILES: CCn1cc(Nc2nc(N[C@@H]3CCCN(C(=O)/C(C#N)=C/C4CC4)C3)c3cc[nH]c3n2)cn1 [Example 171, (R,E)-3-cyclopropyl-2-(3-((2-((1-ethyl-1H-pyrazol-4-yl)amino)-7H-pyrrolo[2,3-d]pyrimidin-4-yl)amino)piperidine-1-carbonyl)acrylonitrile]
- IC50 [1]: 2.2 nM
- IC50 [2]: 0.9 nM

SMILES: CCn1cc(Nc2nc(N(C)[C@@H]3CCCN(C(=O)/C(C#N)=C/C4CC4)C3)c3c(Cl)n[nH]c3n2)cn1 [Example 167, (R,E)-2-(3-((3-chloro-6-((1-ethyl-1H-pyrazol-4-yl)amino)-1H-pyrazolo[3,4-d]pyrimidin-4-yl)(methyl)amino)piperidine-1-carbonyl)-3-cyclopropylacrylonitrile]
- IC50 [1]: 1.5 nM
- IC50 [2]: 43.1 nM

SMILES: C=CC(=O)N1CC[C@@H](C)[C@@H](Nc2nc(Nc3cnn(CCC)c3)nc3[nH]nc(Cl)c23)C1 [Example 121, 1-((3R,4R)-3-((3-chloro-6-((1-propyl-1H-pyrazol-4-yl)amino)-1H-pyrazolo[3,4-d]pyrimidin-4-yl)amino)-4-methylpiperidin-1-yl)prop-2-en-1-one]
- IC50 [1]: 4.9 nM
- IC50 [2]: 18 nM

SMILES: C=CC(=O)N1CCC[C@@H](Nc2nc(Nc3ccc4ncsc4c3)nc3[nH]cc(C)c23)C1 [Example 81, (R)-1-(3-((2-(benzo[d]thiazol-6-ylamino)-5-methyl-7H-pyrrolo[2,3-d]pyrimidin-4-yl)amino)piperidin-1-yl)prop-2-en-1-one]
- IC50 [1]: 25.5 nM
- IC50 [2]: 3.8 nM

SMILES: C=CC(=O)N1CCC[C@@H](Nc2nc(Nc3ccc(Oc4ccccc4)cc3)nc3[nH]ccc23)C1 [Example 13, (R)-1-(3-(2-(4-phenoxyphenylamino)-7H-pyrrolo[2,3-d]pyrimidin-4-ylamino)piperidin-1-yl)prop-2-en-1-one]
- inhibition at 1 µM [1]: 1%
- inhibition at 1 µM ([2]; @1uM compound, printed in the JAK3 IC50 column): 0.4%

SMILES: C=CC(=O)N1CCC[C@@H](Nc2nc(Nc3cnoc3)nc3[nH]ncc23)C1 [Example 146, (R)-1-(3-((6-(isoxazol-4-ylamino)-1H-pyrazolo[3,4-d]pyrimidin-4-yl)amino)piperidin-1-yl)prop-2-en-1-one]
- IC50 [1]: 1.4 nM
- IC50 [2]: 7.4 nM

SMILES: C=CC(=O)N1CC[C@@H](C)[C@@H](Nc2nc(Nc3cnn(C4CC4)c3)nc3[nH]nc(SC)c23)C1 [Example 135, 1-((3R,4R)-3-((6-((1-cyclopropyl-1H-pyrazol-4-yl)amino)-3-(methylthio)-1H-pyrazolo[3,4-d]pyrimidin-4-yl)amino)-4-methylpiperidin-1-yl)prop-2-en-1-one]
- IC50 [1]: 2.3 nM
- IC50 [2]: 42.3 nM

SMILES: C=CC(=O)N1CCC[C@@H](Nc2nc(Nc3cnn(CC(F)(F)F)c3)nc3[nH]nc(Cl)c23)C1 [Example 56, (R)-1-(3-(3-chloro-6-(1-(2,2,2-trifluoroethyl)-1H-pyrazol-4-ylamino)-1H-pyrazolo[3,4-d]pyrimidin-4-ylamino)piperidin-1-yl)prop-2-en-1-one]
- IC50 [1]: 1.8 nM
- IC50 [2]: 0.3 nM

SMILES: C[C@@H]1CCN(C(=O)CC#N)C[C@@H]1N(C)c1nc(Nc2ccc(N3CCN(C)CC3)cc2)nc2[nH]ccc12 [Example 28, 3-((3R,4R)-4-methyl-3-(methyl(2-(4-(4-methylpiperazin-1-yl)phenylamino)-7H-pyrrolo[2,3-d]pyrimidin-4-yl)amino)piperidin-1-yl)-3-oxopropanenitrile]
- inhibition at 1 µM [1]: 3.3%
- IC50 [2]: 186 nM

SMILES: CC(C)(C)/C=C(\C#N)C(=O)N1CCC[C@@H](Nc2nc(Nc3cnn(C4CC4)c3)nc3[nH]nc(Cl)c23)C1 [Example 163, (R,E)-2-(3-((3-chloro-6-((1-cyclopropyl-1H-pyrazol-4-yl)amino)-1H-pyrazolo[3,4-d]pyrimidin-4-yl)amino)piperidine-1-carbonyl)-4,4-dimethylpent-2-enenitrile]
- IC50 [1]: 1.2 nM
- IC50 [2]: 2.7 nM

SMILES: CCn1cc(Nc2nc(O[C@@H]3CCCN(C(=O)/C(C#N)=C/C(C)C)C3)c3c(C#N)c[nH]c3n2)cn1 [Example 156, (R,E)-4-((1-(2-cyano-4-methylpent-2-enoyl)piperidin-3-yl)oxy)-2-((1-ethyl-1H-pyrazol-4-yl)amino)-7H-pyrrolo[2,3-d]pyrimidine-5-carbonitrile]
- IC50 [1]: 1.1 nM
- IC50 [2]: 0.5 nM
